Results published in patent US4223031A, “Azolopyrimidinones” (priority 1978, dated 1980).
Read-outs that look alike come from different tables or passages of the source.

Key:
guinea pig trachea = assay: relaxation of the spontaneous tonus of the isolated guinea pig trachea (tracheal spiral) in vitro; details: for relaxation of the spontaneous tonus of the guinea pig trachea in vitro: guinea pig trachea / tracheal spiral, result in words
Procedure: The new compounds of Formulas III and IV are also considered part of the present invention since they are useful as intermediates for the production of the substances of Formula I. Some of the substances of Formulas III and IV also have biological utility in addition to their utility as intermediates. […] It is 13.2 times as potent as theophylline in relaxing the spontaneous tonus of the isolated guinea pig tracheal spiral. […] In both instances, the drug was administered orally.

[1] = tested on: passive cutaneous anaphylaxis reaction (PCA); assay: passive cutaneous anaphylaxis reaction (PCA) in the rat; type: in vivo; details: for ED50 / PCA Response, percent inhibition at the dose specified: rat; for ED50: read-out: PCA Response, ED 50; for antiallergic activity: rat PCA, result in words
Procedure: Twelve days after injection, the serum is collected and the antibody titer is determined. The sera which contain sufficient antibody to cause a 10 mm. spot in the dorsal skin of the rat in the PCA test after a 10-fold dilution are pooled. […] The selected reaginic anti-sera are stored frozen until use. For carrying out the test, groups of 5 to 10 male Sprague-Dawley (Carworth Farms) rats, each rat weighing 100-150 g., are used. Forty-eight hours prior to the test, the animals are passively sensitized by intradermal injection of 0.1 ml. of the above diluted antiserum at various locations on the shaved skin of the back. A dilution of antiserum is used so that a spot following challenge of 20-25 mm. in diameter is obtained. Challenge consists of an intravenous injection of 25 mg./kg. of body weight of egg albumin and a like amount of Evan's blue dye in saline. […] A latent period of 48 hrs. is allowed before the animals are treated with the test drug administered by either intraperitoneal or intravenous injection or orally by gavage. Challenge as described above is given 15 min. subsequent to treatment with the test drug. The response to the antigen challenge in the sensitized localities on the skin is an increased capillary permeability and leakage of the blue dye into the area surrounding the sensitized site. The PCA response is scored by measuring the mean spot diameter on the excised and reversed skin 20-30 min. after challenge. In each experiment a group of control animals receiving no drug is employed. The percent inhibition of the PCA is calculated by determining the mean diameters of the spots in the control and treated animals and computing the difference between the squares of the mean diameters of the control animals and the treated animals and expressing this difference as a percentage of the square of the mean diameter of the control animals. Results are expressed as percent inhibition. […] In other modifications, various time intervals are allowed between drug treatment and challenge to ascertain the duration of drug effect.

in vivo = details: po, rat, treated orally, read-out: approximate LD50

SMILES | relaxation of the spontaneous tonus of the guinea pig trachea in vitro (guinea pig trachea) | ED50 ([1]; po, p.o.) [mg/kg] | other results
Cc1csc(NC=C(C#N)C#N)n1 [Example 5, 2-[[(4-methylthiazol-2-yl)amino]methylene]propanedinitrile] | substantial tracheal relaxant action | – | potency relative to theophylline in relaxing the spontaneous tonus of the isolated guinea pig tracheal spiral (guinea pig trachea; isolated guinea pig tracheal spiral): 13.2 times as potent as theophylline
N#CC(=CNc1nc2ccccc2s1)c1nnn[nH]1 [Example 14, N-[2-Cyano-2-(1H-tetrazol-5-yl)ethenyl]-benzothiazol-2-amine] | – | 32 | antiallergic activity [1]: antiallergic activity similar to those substances of Formula I
N=c1c(-c2nnn[nH]2)cnc2[nH]cnn12 [Example 15, 3,7-Dihydro-6-(1H-tetrazol-5-yl)-s-triazolo-[1,5-a]pyrimidin-7-imine] | inactive | – | PCA Response, percent inhibition at the dose specified ([1]; 10 mg/kg, p.o.): 36.1%
Cc1csc(NC=C(C#N)c2nnn[nH]2)n1 [Example 17, 3-[(4-Methylthiazol-2-yl)amino]-2-(1H-tetrazol-5-yl)-2-propenenitrile] | – | – | antiallergic activity [1]: antiallergic activity similar to those substances of Formula I; PCA Response, percent inhibition at the dose specified ([1]; 25 mg/kg, p.o.): 36.7%
N=c1c(-c2nnn[nH]2)cnc2sccn12 [Example 22, 6-(1H-Tetrazol-5-yl)-5H-thiazole[3,2-a]-pyrimidine-5-imine] | – | – | PCA Response, percent inhibition at the dose specified ([1]; 10 mg/kg, p.o.): 22.4%
Cl.N=c1c(-c2nnn[nH]2)cnc2sc3ccccc3n12 [Example 23, 3-(1H-Tetrazol-5-yl)-4H-pyrimido[2,1-b]-benzothiazol-4-imine Hydrochloride] | cause relaxation | 2.9 | –
O=c1c(-c2nnn[nH]2)cnc2sc3ccccc3n12 [Example 24, 3-(1H-Tetrazol-5-yl)-4H-pyrimido[2,1-b]-benzothiazol-4-one] | cause relaxation | 0.064 | ED50 ([1]; iv, i.v.): 0.0049 mg/kg; LD50 (in vivo): 2000 to 5000 mg/kg
Cc1cc(C)c2sc3ncc(-c4nnn[nH]4)c(=O)n3c2c1 [Example 25, 7,9-Dimethyl-3-(1H-tetrazol-5-yl)-4H-pyrimido[2,1-b]benzothiazol-4-one] | cause relaxation | – | –
Cc1csc2ncc(-c3nnn[nH]3)c(=O)n12 [Example 28, 3-Methyl-6-(1H-tetrazol-5-yl)-5H thiazolo[3,2-a]pyrimidine-5-one] | cause relaxation | – | PCA Response, percent inhibition at the dose specified ([1]; 25 mg/kg, p.o.): 39%
COc1ccc2c(c1)sc1ncc(-c3nnn[nH]3)c(=O)n12 [Example 31, 8-Methoxy-3-(1H-tetrazol-5-yl)-4H-pyrimido-[2,1-b]benzothiazol-4-one] | cause relaxation | 1.88 | –
Cc1cc2sc3ncc(-c4nnn[nH]4)c(=O)n3c2cc1C [Example 32, 7,8-Dimethyl-3-(1H-tetrazol-5-yl)-4H-pyrimido[2,1-b]benzothiazol-4-one] | cause relaxation | – | PCA Response, percent inhibition at the dose specified ([1]; 25 mg/kg, p.o.): 34.9%
O=c1c(-c2nnn[nH]2)cnc2sccn12 [Example 33, 6-(1H-Tetrazol-5-yl)-5H-thiazolo[3,2-a]-pyrimidin-5-one] | – | – | PCA Response, percent inhibition at the dose specified ([1]; 10 mg/kg, p.o.): 57%
